Earlier results in US20180256601A1, “URSODEOXYCHOLIC ACID AND BRAIN DISORDERS” (priority 2015, published 2018).
Entries after “also recorded” stand apart in the source; their conditions may differ.

How the values were obtained:
[1] = in vivo
[2] = worldwide postmarketing and clinical experience
[3] = post approval use
PBC patients = details: sixty PBC patients
[4] = in divided doses (Parry et al, 2010)
[5] = oral; 450 mg UDCA, or complex containing 426 mg UDCA
[6] = not given; remark: listed apart in the source
ALS patients = details: 1 g twice daily; 17 ALS patients
cellular model of HD = details: coincubation with 3-NP
prion disease = details: Cortez et al, 2015
cell model of ALS = cell model of ALS (Vaz et al, 2015)

C[C@H](CCC(=O)O)[C@H]1CC[C@H]2[C@@H]3[C@@H](O)C[C@@H]4C[C@H](O)CC[C@]4(C)[C@H]3CC[C@]12C [UDCA, Ursodeoxycholic Acid]
percentage of UDCA in the bile pool after administration of exogenous UDCA [1]: 55 to 60% | frequency of common adverse reactions: abdominal discomfort, abdominal pain, alopecia, diarrhea, nausea, pruritus, rash [2]: ≥ 1% | Adverse Reactions: Musculoskeletal and connective tissue disorders [3]: Myalgia | Adverse Reactions: Nervous system disorders [3]: dizziness, headache | Adverse Reactions: Respiratory, thoracic and mediastinal disorders [3]: Cough | Adverse Reactions: Gastrointestinal disorders ([3]; listed as ursodiol): abdominal discomfort,; also recorded: abdominal pain,; also recorded: constipation, diarrhea,; also recorded: dyspepsia, nausea,; also recorded: vomiting | Adverse Reactions: General disorders and administration site conditions ([3]; listed as ursodiol): malaise, peripheral; also recorded: edema, pyrexia | Adverse Reactions: Immune System Disorders ([3]; listed as ursodiol): Drug hypersensitivity; also recorded: edema, urticaria,; also recorded: laryngeal edema | Adverse Reactions: Skin and subcutaneous tissue disorder ([3]; listed as ursodiol): alopecia, pruritus, and rash | abdominal pain and asthenia (PBC patients): 1 patient | anorexia (PBC patients): 1 patient | dyspepsia (PBC patients): 2 patients | esophagitis (PBC patients): 1 patient | nausea (PBC patients): 3 patients | patients who reported adverse reactions (PBC patients; seven patients, nine adverse reactions): 11.6% | dose well tolerated without significant neurotoxic effects [4]: up to 50 mg/kg/day | elimination half-life (adults): 72 to 140 h | bile UDCA levels following discontinuation of therapy, as share of average steady state concentrations (in vivo): 5 to 10% | time to steady state concentrations (on average, from starting therapy): ≤ 3 weeks | fraction of oral dose excreted via the urine (oral): 1% | fraction of exogenous UDCA absorbed (oral delivery, passive diffusion by the proximal jejunum and ileum): ~90% | Cmax [5]: 6100 ng/mL | t1/2(abs) [5]: 0.9 h | tmax [5]: 1.38 h | correlation between serum concentrations 1 hour after dosing and cerebrospinal fluid concentrations 2 hours after dosing ([6]; 18 ALS patients (Parry et al, 2010)): strong statistically significant correlation | time of serum level peak ([6]; after oral administration): 30 to 50 min | blood-brain barrier crossing ([6]; in vivo): crosses the blood-brain barrier in a dose-dependent manner

C[C@H](CCC(=O)NCCS(=O)(=O)O)[C@H]1CC[C@H]2[C@@H]3[C@@H](O)C[C@@H]4C[C@H](O)CC[C@]4(C)[C@H]3CC[C@]12C [TUDCA, tauroursodeoxycholic acid]
Amyotrophic Lateral Sclerosis Functional Rating Scale Revised (ALS patients): significant improvements | mitochondrial cytochrome c release and mitochondrial membrane alterations (cellular model of HD): prevented | reduction in apoptosis (cellular model of HD): ~80% | therapeutic effects in prion disease (prion disease): variety of therapeutic effects

C[C@H](CCC(=O)NCC(=O)O)[C@H]1CC[C@H]2[C@@H]3[C@@H](O)C[C@@H]4C[C@H](O)CC[C@]4(C)[C@H]3CC[C@]12C [GUDCA, glycoursodeoxycholic acid]
mitochondrial dysfunction, caspase-9 activation, matrix metalloproteinase activation, nitrogen oxide (NO) generation (cell model of ALS): decrease
